Test results reported in patent US8378115B2, “Monomethine dyes” (Thermo Fisher Scientific (Milwaukee) LLC, priority 2007, dated 2013).

Key:
λDNA = test: Fluorescence enhancement of dye with λDNA; assay type: binding; conditions: for Fluorescence relative to TO / Fluorescence λ DNA/ssDNA: 0.8 μM dye, 3.2 μM DNA, one minute; for Ratio λ DNA/ss: fluorescence λ DNA vs ss-DNA; for Relative Fluorescent Intensity: λ DNA, TO = 1.0
Experimental: (§1) Stock solutions (8 mM) of each dye were prepared by dissolving each compound in dimethylsulfoxide (DMSO). Stock dye solutions were diluted to a desired concentration in tris-EDTA (TE) buffer (10 mM Tris, 1 mM EDTA, pH 8.0) immediately prior to use.
(§2) Stock solutions of λDNA and 40mer synthetic oligonucleotides (dsDNA and ssDNA), each at a concentration of 40 μM, were prepared in TE buffer. All DNA concentrations described are in base pairs of nucleotides. The DNA stock solutions were diluted to a desired concentration in TE buffer before being mixed with diluted dye solutions.
(§3) Fluorescence enhancement measurements of each dye were obtained by incubating dyes with λDNA, 40mer dsDNA, or 40mer ssDNA at a final concentration of 0.8 μM dye and 3.2 μM DNA for one minute. Fluorescence scans of the samples were performed with excitation wavelengths corresponding to the absorption maxima of the dyes. The resulting fluorescence intensities were compared to fluorescence intensities of Thiazole Orange (TO) and a compound equivalent to SYBR Green without the side chain (V02-06101), shown below,
(§4) [drawing 15] binding to λDNA, 40mer dsDNA, or 40mer ssDNA at a final concentration of 0.8 μM TO and 3.2 μM DNA for one minute, the same as for the tested dyes. The discrimination ratio between dsDNA and ssDNA was calculated by comparing the fluorescence intensities.

[1] = Absorption spectra of dye alone; assay type: physicochemical; conditions: for ε: in M-1·cm-1 (unit assumed)
Experimental: as §1
[…] […] Optical densities were determined at the absorbance maxima and the extinction coefficients were calculated using Beer's law.

40mer dsDNA = test: Fluorescence enhancement of dye with 40mer dsDNA; assay type: binding; conditions: for Relative Fluorescent Intensity: 40-mer ds-DNA, TO = 1.0; for Ratio ds/ss: fluorescence 40-mer ds-DNA vs ss-DNA
Experimental: as §1, §2, §3, §4

rRNA = test: Fluorescence of dye with rRNA; assay type: binding; conditions: for Ratio rRNA/ds: fluorescence rRNA vs 40-mer ds-DNA; for Ratio rRNA/ss: fluorescence rRNA vs 40-mer ss-DNA

C[n+]1c(/C=C2\C=CN(c3ccccc3)c3ccccc32)sc2ccccc21 [Dye V02-06101, reference compound]
Fluorescence relative to TO (λDNA): 0.8 | Fluorescence λ DNA/ssDNA (λDNA): 4.1

CCN(CC)c1ccc2c(C=C3Sc4ccccc4N3CC)cc(C(C)(C)C)[o+]c2c1 [Dye V02-06124]
λex ([1]; Ethanol): 530 nm | ε ([1]; Ethanol): 85,000 | λex ([1]; TE Buffer, 8 μM dye): 515 nm | ε ([1]; TE Buffer, 8 μM dye): 46,625 | Fluorescence relative to TO (λDNA): 0.5 | Fluorescence λ DNA/ssDNA (λDNA): 1.6 | Ratio λ DNA/ss (λDNA): 1.6 | Relative Fluorescent Intensity (λDNA): 0.5 | Relative Fluorescent Intensity (40mer dsDNA): 0.3 | Ratio ds/ss (40mer dsDNA): 1.2

CCN1C(=Cc2cc(-c3ccccc3)[o+]c3cc(OC)ccc23)Sc2ccccc21 [Dye V02-06132]
λex ([1]; Ethanol): 488 nm | ε ([1]; Ethanol): 43,000 | λex ([1]; TE Buffer, 8 μM dye): 480 nm | ε ([1]; TE Buffer, 8 μM dye): 18,850 | Fluorescence relative to TO (λDNA): None | Fluorescence λ DNA/ssDNA (λDNA): None

CCN1C(=Cc2cc(-c3ccccc3)[o+]c3cc(OC)ccc23)Oc2ccccc21 [Dye V02-06135]
λex ([1]; Ethanol): 464 nm | ε ([1]; Ethanol): 43,000 | Fluorescence relative to TO (λDNA): None | Fluorescence λ DNA/ssDNA (λDNA): None

CCN(CC)c1ccc2c(C=C3Oc4ccccc4N3CC)cc(C(C)(C)C)[o+]c2c1 [Dye V02-06136]
λex ([1]; Ethanol): 499 nm | ε ([1]; Ethanol): 72,000 | λex ([1]; TE Buffer, 8 μM dye): 492 nm | ε ([1]; TE Buffer, 8 μM dye): 35,925 | Fluorescence relative to TO (λDNA): 0.17 | Fluorescence λ DNA/ssDNA (λDNA): 1 | Ratio λ DNA/ss (λDNA): 1 | Relative Fluorescent Intensity (λDNA): 0.17 | Relative Fluorescent Intensity (40mer dsDNA): 0.3 | Ratio ds/ss (40mer dsDNA): 1.8

CCN(CC)c1ccc2c(/C=C3\Sc4ccccc4N3CC)cc(-c3ccccc3)[o+]c2c1 [Dye V02-06187]
λex ([1]; Ethanol): 550 nm | ε ([1]; Ethanol): 55,000 | λex ([1]; TE Buffer, 8 μM dye): 524 nm | ε ([1]; TE Buffer, 8 μM dye): 19,668 | Fluorescence relative to TO (λDNA): 0.7 | Fluorescence λ DNA/ssDNA (λDNA): 6.7 | Ratio λ DNA/ss (λDNA): 5.2 | Relative Fluorescent Intensity (λDNA): 0.7 | Relative Fluorescent Intensity (40mer dsDNA): 0.5 | Ratio ds/ss (40mer dsDNA): 2.1

CCN(CCCN(C)C)c1ccc2c(/C=C3\Sc4ccccc4N3CC)cc(C(C)(C)C)[o+]c2c1 [Dye V02-07015]
λex ([1]; Ethanol): 522 nm | ε ([1]; Ethanol): 50,000 | λex ([1]; TE Buffer, 8 μM dye): 515 nm | ε ([1]; TE Buffer, 8 μM dye): 37,365 | Fluorescence relative to TO (λDNA): 4.0 | Fluorescence λ DNA/ssDNA (λDNA): 3.7 | Ratio λ DNA/ss (λDNA): 3.7 | Relative Fluorescent Intensity (λDNA): 4.0 | Relative Fluorescent Intensity (40mer dsDNA): 4.0 | Ratio ds/ss (40mer dsDNA): 2.3

CCN(CC)c1ccc2c(N(C)CCCN(C)C)cc(/C=C3\Sc4ccccc4N3C)[o+]c2c1 [Dye V02-07108]
λex ([1]; Ethanol): 498 nm | ε ([1]; Ethanol): 46,000 | λex ([1]; TE Buffer, 8 μM dye): 496 nm | ε ([1]; TE Buffer, 8 μM dye): 27,418 | Ratio rRNA/ds (rRNA): 0.8 | Ratio rRNA/ss (rRNA): 1.1 | Fluorescence relative to TO (λDNA): 3.1 | Fluorescence λ DNA/ssDNA (λDNA): 1.8 | Ratio λ DNA/ss (λDNA): 1.9 | Relative Fluorescent Intensity (λDNA): 3.1 | Relative Fluorescent Intensity (40mer dsDNA): 3.5 | Ratio ds/ss (40mer dsDNA): 1.4

CCN(CC)c1ccc2c(/C=C3\Sc4ccccc4N3C)cc(N(C)CCC[N+](C)(C)C)[o+]c2c1 [Dye V11-02190]
λex ([1]; Ethanol): 481 nm | ε ([1]; Ethanol): 25,600 | λex ([1]; TE Buffer, 8 μM dye): 477 nm | ε ([1]; TE Buffer, 8 μM dye): 16,940 | Ratio rRNA/ds (rRNA): 0.7 | Ratio rRNA/ss (rRNA): 1.4 | Ratio λ DNA/ss (λDNA): 3.1 | Relative Fluorescent Intensity (λDNA): 1.9 | Relative Fluorescent Intensity (40mer dsDNA): 1.7 | Ratio ds/ss (40mer dsDNA): 1.9

CCN1c2cc3[o+]c(N(C)CCCN(C)C)cc(/C=C4\Sc5ccccc5N4C)c3cc2C(C)=CC1(C)C [Dye V12-02144]
λex ([1]; Ethanol): 492 nm | ε ([1]; Ethanol): 49,000 | λex ([1]; TE Buffer, 8 μM dye): 484 nm | ε ([1]; TE Buffer, 8 μM dye): 28,355 | Ratio rRNA/ds (rRNA): 0.7 | Ratio rRNA/ss (rRNA): 1.5 | Fluorescence relative to TO (λDNA): 3.6 | Fluorescence λ DNA/ssDNA (λDNA): 2.8 | Ratio λ DNA/ss (λDNA): 2.0 | Relative Fluorescent Intensity (λDNA): 1.7 | Relative Fluorescent Intensity (40mer dsDNA): 2.7 | Ratio ds/ss (40mer dsDNA): 2.1

CCN(CC)c1ccc2c(c1)O/C(=C\c1cc(N(C)CCCN(C)C)[o+]c3cc(N(CC)CC)ccc13)C=C2C [Dye V13-01026]
λex ([1]; Ethanol): 585 nm | ε ([1]; Ethanol): 48,000 | λex ([1]; TE Buffer, 8 μM dye): 543 nm | ε ([1]; TE Buffer, 8 μM dye): 25,013 | Fluorescence relative to TO (λDNA): 0.9 | Fluorescence λ DNA/ssDNA (λDNA): 1.4 | Ratio λ DNA/ss (λDNA): 1.4 | Relative Fluorescent Intensity (λDNA): 0.9 | Relative Fluorescent Intensity (40mer dsDNA): 1.0 | Ratio ds/ss (40mer dsDNA): 0.7

CCN(CC)c1ccc2c(/C=C3\Sc4ccccc4N3C)cc(N3CCN(CCO)CC3)[o+]c2c1 [Dye V13-01184]
λex ([1]; Ethanol): 480 nm | ε ([1]; Ethanol): 83,000 | λex ([1]; TE Buffer, 8 μM dye): 455 nm | ε ([1]; TE Buffer, 8 μM dye): 40,321 | fluorescence enhancement when bound with RNA (rRNA): significant fluorescence enhancement | Ratio rRNA/ds (rRNA): 1.0 | Ratio rRNA/ss (rRNA): 1.4 | Fluorescence relative to TO (λDNA): 5.3 | Fluorescence λ DNA/ssDNA (λDNA): 6.1 | Ratio λ DNA/ss (λDNA): 2.0 | Relative Fluorescent Intensity (λDNA): 5.3 | Relative Fluorescent Intensity (40mer dsDNA): 6.1 | Ratio ds/ss (40mer dsDNA): 1.4

CCCN(CCCN(C)C)C1=C/C(=C\c2sc3ccccc3[n+]2C)c2ccccc2N1c1ccccc1 [SYBR Green, reference compound]
λex ([1]; TE Buffer, 8 μM dye): 494 nm | ε ([1]; TE Buffer, 8 μM dye): 73,000 | Ratio rRNA/ds (rRNA): 0.3 | Ratio rRNA/ss (rRNA): 1.0 | Fluorescence relative to TO (λDNA): 10.6 | Fluorescence λ DNA/ssDNA (λDNA): 8.3 | Ratio λ DNA/ss (λDNA): 8.3 | Relative Fluorescent Intensity (λDNA): 10.6 | Relative Fluorescent Intensity (40mer dsDNA): 15.0 | Ratio ds/ss (40mer dsDNA): 7.5

CN1C(=Cc2cc[n+](C)c3ccccc23)Sc2ccccc21 [TO, Thiazole Orange, reference compound]
λex ([1]; Ethanol): 501 nm | ε ([1]; Ethanol): 77,000 | λex ([1]; TE Buffer, 8 μM dye): 501 nm | ε ([1]; TE Buffer, 8 μM dye): 52,773 | Ratio rRNA/ds (rRNA): 0.8 | Ratio rRNA/ss (rRNA): 2.3 | Fluorescence relative to TO (λDNA): 1 | Fluorescence λ DNA/ssDNA (λDNA): 3.3 | Ratio λ DNA/ss (λDNA): 5.6 | Relative Fluorescent Intensity (λDNA): 1.0 | Relative Fluorescent Intensity (40mer dsDNA): 1.0 | Ratio ds/ss (40mer dsDNA): 3.5
